Measurements reported in ChEMBL document CHEMBL3864130, “A novel lead of P-selectin inhibitor: Discovery, synthesis, bioassays and action mechanism” (2016).
Active and inactive are the calls of the source. No cut-off for these calls is given here.

Assays:
Mus musculus [1] = experiment: Antithrombosis activity in ferric cholride induced ICR mouse model of thrombosis assessed as inhibition of thrombus formation at 240 umol/kg, po measured after 15 mins; type: functional, organism-based
Mus musculus [2] = experiment: Antiinflammatory activity in xylene induced ICR mouse ear edema model assessed as decrease in ear swelling at 0.11 mmol/kg, po pretreated for 30 mins followed by topical administration of xylene measured after 2 hrs; type: functional, organism-based
Rattus norvegicus [3] = experiment: Antithrombotic activity in Sprague-Dawley rat model of thrombosis assessed as inhibition of thrombus formation at 167 umol/kg, po measured after 30 mins; type: functional, organism-based
[4] = target: T1, P-selectin (Rattus norvegicus) (UniProt P98106); experiment: Downregulation of P-selectin expression in arachidonic acid-activated Sprague-Dawley rat platelets assessed as P-selectin levels pretreated with platelets followed by arachidonic acid addition measured after 3 mins by ELISA
T1 sequence (whole entry): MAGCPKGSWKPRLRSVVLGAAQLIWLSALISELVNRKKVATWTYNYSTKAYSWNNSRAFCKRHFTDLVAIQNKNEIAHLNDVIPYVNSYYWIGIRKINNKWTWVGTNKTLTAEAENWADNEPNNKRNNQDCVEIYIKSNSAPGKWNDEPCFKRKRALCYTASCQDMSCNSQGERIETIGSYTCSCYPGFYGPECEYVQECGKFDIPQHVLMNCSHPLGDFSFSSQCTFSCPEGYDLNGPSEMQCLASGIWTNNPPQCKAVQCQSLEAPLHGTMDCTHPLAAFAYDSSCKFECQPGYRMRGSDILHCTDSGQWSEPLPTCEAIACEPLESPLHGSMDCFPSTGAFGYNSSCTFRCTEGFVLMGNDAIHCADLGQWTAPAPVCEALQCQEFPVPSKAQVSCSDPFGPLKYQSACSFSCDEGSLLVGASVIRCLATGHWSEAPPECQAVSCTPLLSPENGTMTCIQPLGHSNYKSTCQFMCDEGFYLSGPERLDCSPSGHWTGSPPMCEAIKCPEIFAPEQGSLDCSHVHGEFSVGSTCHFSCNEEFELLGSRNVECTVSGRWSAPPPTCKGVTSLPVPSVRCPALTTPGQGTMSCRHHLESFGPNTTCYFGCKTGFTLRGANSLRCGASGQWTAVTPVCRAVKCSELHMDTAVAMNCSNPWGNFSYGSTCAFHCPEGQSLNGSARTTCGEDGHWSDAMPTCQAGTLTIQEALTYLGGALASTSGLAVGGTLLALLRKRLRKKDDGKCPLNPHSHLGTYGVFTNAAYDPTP

Mus musculus [5] = experiment: Antiinflammatory activity in xylene induced ICR mouse ear edema model assessed as decrease in ear swelling pretreated orally for 30 mins followed by topical administration of xylene measured after 2 hrs; type: functional
[6] = target: T1, P-selectin (Rattus norvegicus); experiment: (§1) Downregulation of P-selectin expression in arachidonic acid-activated Sprague-Dawley rat platelets assessed as decrease in fluorescence intensity pretreated for 30 mins followed by arachidonic acid addition measured after 5 mins by phycoerythrin-anti-[…] staining-based flow cytometry
[7] = target: T1, P-selectin (Rattus norvegicus); experiment: as §1, with “mean” for “decrease in”, “intensity at 20 nM” for “intensity”, “cytometry (reference value: 1621)” for “cytometry”
[8] = target: T1, P-selectin (Rattus norvegicus); experiment: as §1, with “as” for “as decrease in”, “intensity at 200 nM” for “intensity”, “cytometry (reference value: 1621)” for “cytometry”
[9] = target: T1, P-selectin (Rattus norvegicus); experiment: as §1, with “as” for “as decrease in”, “intensity at 2000 nM” for “intensity”, “cytometry (reference value: 1621)” for “cytometry”
[10] = target: T2, P-selectin (Homo sapiens) (UniProt P16109); experiment: Binding affinity to P-selectin (unknown origin) assessed as maximal absorbance at 295.4 nanometer at 0.18 mM by UV spectroscopy
T2 sequence (whole entry): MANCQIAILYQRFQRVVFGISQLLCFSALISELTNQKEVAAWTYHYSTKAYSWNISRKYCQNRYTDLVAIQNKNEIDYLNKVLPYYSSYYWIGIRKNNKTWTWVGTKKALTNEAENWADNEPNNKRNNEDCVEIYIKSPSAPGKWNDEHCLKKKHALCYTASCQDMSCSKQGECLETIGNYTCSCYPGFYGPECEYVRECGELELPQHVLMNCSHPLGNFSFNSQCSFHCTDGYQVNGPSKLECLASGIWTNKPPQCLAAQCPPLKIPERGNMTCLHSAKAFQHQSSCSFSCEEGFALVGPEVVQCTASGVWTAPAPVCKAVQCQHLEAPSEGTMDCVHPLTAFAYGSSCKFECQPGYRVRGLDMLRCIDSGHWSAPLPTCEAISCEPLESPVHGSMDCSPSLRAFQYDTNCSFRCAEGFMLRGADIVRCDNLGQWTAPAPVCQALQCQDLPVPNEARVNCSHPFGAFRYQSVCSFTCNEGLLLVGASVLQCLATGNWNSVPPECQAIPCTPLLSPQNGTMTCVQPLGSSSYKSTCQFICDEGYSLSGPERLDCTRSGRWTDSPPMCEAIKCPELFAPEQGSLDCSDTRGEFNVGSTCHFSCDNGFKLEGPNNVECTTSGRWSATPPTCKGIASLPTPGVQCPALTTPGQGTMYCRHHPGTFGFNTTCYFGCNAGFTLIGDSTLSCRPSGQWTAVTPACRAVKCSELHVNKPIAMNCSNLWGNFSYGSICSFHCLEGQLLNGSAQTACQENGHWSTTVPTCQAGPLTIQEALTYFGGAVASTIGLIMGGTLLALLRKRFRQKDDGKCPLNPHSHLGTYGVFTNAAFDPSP

[11] = target: T2, P-selectin (Homo sapiens); experiment: Binding affinity to P-selectin (unknown origin) assessed as maximal absorbance at 340.8 nanometer at 0.18 mM by UV spectroscopy
[12] = target: T2, P-selectin (Homo sapiens); experiment: Binding affinity to P-selectin (unknown origin) assessed as maximal absorbance at 352 nanometer at 0.18 mM by UV spectroscopy
[13] = target: T2, P-selectin (Homo sapiens); experiment: Binding affinity to P-selectin (unknown origin) assessed as red shift at 295.4 nanometer at 0.42 mM by UV spectroscopy
[14] = target: T2, P-selectin (Homo sapiens); experiment: Binding affinity to P-selectin (unknown origin) assessed as hyperchromic effect at 340.8 nanometer at 0.42 mM by UV spectroscopy
[15] = target: T2, P-selectin (Homo sapiens); experiment: Binding affinity to P-selectin (unknown origin) assessed as bathochromic shift at 340.8 nanometer at 0.42 mM by UV spectroscopy
Rattus norvegicus [16] = experiment: Antithrombotic activity in po dosed Sprague-Dawley rat model of thrombosis assessed as inhibition of thrombus formation measured after 30 mins; type: functional
Rattus norvegicus [17] = species: Rattus norvegicus; experiment: Potency index, ratio of compound efficacy to aspirin efficacy for antithrombotic activity in Sprague-Dawley rat model of thrombosis; type: functional
Mus musculus [18] = experiment: Antithrombosis activity in ferric chloride induced ICR mouse model of thrombosis assessed as inhibition of thrombus formation at 200 nmol/kg, po measured after 15 mins; type: functional, organism-based
Mus musculus [19] = species: Mus musculus; experiment: Potency index, ratio of compound efficacy to aspirin efficacy in ferric chloride induced ICR mouse model of thrombosis; type: functional
Mus musculus [20] = experiment: Potency index, ratio of compound efficacy to aspirin efficacy in xylene induced ICR mouse ear edema model; type: functional
Mus musculus [21] = experiment: Decrease in serum TNF-alpha level in xylene induced ICR mouse ear edema model administered orally 30 mins prior to topical administration of xylene; type: functional
Mus musculus [22] = experiment: Decrease in serum IL8 level in xylene induced ICR mouse ear edema model at 2 nmol/kg,po pretreated for 30 mins followed by topical administration of xylene; type: functional
Mus musculus [23] = experiment: Decrease in serum IL8 level in xylene induced ICR mouse ear edema model administered orally 30 mins prior to topical administration of xylene; type: functional
[24] = target: T1, P-selectin (Rattus norvegicus); experiment: Downregulation of P-selectin expression in arachidonic acid-activated Sprague-Dawley rat platelets at 200 to 2000 nM pretreated with platelets followed by arachidonic acid addition measured after 3 mins by ELISA
[25] = target: T2, P-selectin (Homo sapiens); experiment: Binding affinity to P-selectin (unknown origin) assessed as red shift at 352 nanometer at 0.42 mM by UV spectroscopy

SMILES: CC(=O)Oc1ccccc1C(=O)O
- inhibition (Mus musculus [1]): Active
- Activity (Mus musculus [2]): Active
- inhibition (Rattus norvegicus [3]): Active

SMILES: O=C(O)[C@H](Cc1ccccc1)NCCc1nc(CO)cc2c1[nH]c1ccccc12
- MEC [4]: 200 nM
- Activity (Mus musculus [5]): Dose-dependent effect
- MED (Mus musculus [5]): 20 nmol/kg
- Activity [6]: Dose-dependent effect
- MEC [6]: 20 nM
- Flu intensity [7]: 871
- Flu intensity [8]: 754
- Flu intensity [9]: 665
- Activity [10]: 0.451
- Activity [11]: 0.355
- Activity [12]: 0.339
- Activity [13]: 1.4 nm
- Activity [14]: 51.2%
- Activity [15]: 0.6 nm
- MED (Rattus norvegicus [16]): 20 nmol/kg
- inhibition (Rattus norvegicus [16]): Dose-dependent effect
- Ratio (Rattus norvegicus [17]): 835
- inhibition (Mus musculus [18]): Active
- Ratio (Mus musculus [19]): 1200
- Ratio (Mus musculus [20]): 550
- MEC (Mus musculus [21]): 200 nmol/kg
- Activity (Mus musculus [22]): Active
- Activity (Mus musculus [23]): Dose-dependent effect
- MEC (Mus musculus [23]): 2 nmol/kg
- Activity [24]: Active
- Activity [25]: 1.4 nm
